In US20080234232A1, “Methods and compositions for targeting AFAP” (priority 2007, published 2008):

Legend:
[1] = tested on: PI3K; experiment: Surrogate markers for PI3K activation in the MEF cell system; type: cell-based, mouse; details: PMA treatment
[2] = biological target: T1, PI3K (Mus musculus, UniProt P42337); experiment: In vitro PI3K kinase assay on anti-p110α immunoprecipitates of treated SYF/cSrc cells; type: cell-based; details: SYF/cSrc cells serum-starved, 100 nM PMA for 5 or 15 minutes
T1 construct: a PI3K kinase activity assay performed using anti-p1100α immunoprecipitates; endogenous in cells; host or cells: SYF/cSrc mouse embryo fibroblasts (lysate, anti-p110α immunoprecipitate)
Procedure: FIG. 3: PMA treatment results in an increase in PI3K activation, in vitro. SYF/cSrc cells were cultured under serum-free conditions for 24 hours. Cells were unstimulated or stimulated with 10% serum (positive control), 100 nM PMA for 5 or 15 minutes. Cells were then lysed in kinase assay buffer and a PI3K kinase activity assay performed using anti-p1100α immunoprecipitates to measure PMA-induced incorporation of [^32p] into phosphoinositide substrates.
PI3K activity was determined using the In vitro PI3K kinase assay as previously described (Jiang, B. H. et. al., 1998). Cells were serum-starved 24 hours. The media was changed and cells were then treated with either 10% fetal calf serum or 100 nM PMA for 5 or 15 minutes alone or in conjunction with 6 μM bisindolylmaleimide [i] or 10 μM LY294002 for six hours as a negative control. Upon completion of the incubation, the cells were lysed in cold kinase lysis buffer [150 mM NaCl, 100 mM Tris pH 8.0, 1% Triton X-100, 5 mM EDTA, 10 mM NaF, plus inhibitors (1 mg/ml leuptin, 1 mg/ml peptatin, 0.5 M sodium vanadate, 1 mg/ml aprotinin, and 1M DTT)]. Five hundred micrograms (500 μg) of protein was incubated with p110α antibody overnight at 4° C. Forty microliters (40 μl) of protein A/G PLUS agarose beads (50% slurry) was added and incubated for an additional two hours. […]

[3] = tested on: cSrc; experiment: Western blot of phospho-Src family (Y416) after PMA treatment; type: cell-based, mouse; details: 100 nM PMA 15 min
Procedure: E) SYF, SYF/cSrc, and p85−/− were treated with 100 nM PMA for 15 minutes, 40 μg cell lysate resolved by SDS-PAGE and western blot analysis performed to evaluate phospho-Src family (Y416)(1:1000) and cSrc (1:500) as described in the methods section. Beta-actin (1:5000) was used as a loading control.
All cells were cultured to 70-80% confluence, serum-starved for 16 hours, and treated as described above. The cells were lysed and western analysis performed as previously described (Guappone, A. C. et. al., 1997). Membranes were probed using the following antibodies diluted in 1× Tris-buffered saline plus 0.1% Tween-20 (TBS-T) containing 5% nonfat milk, except were indicated: 1:10000 AFAP-110 pAb (F1), 1:1000 Phospho-Src family Tyrosine 416 (Cell Signal) in 5% BSA, 1:500 cSrc (clone N-16: Santa Cruz Biotechnology), 1:1000 p85α (BD Biosciences), 1:1000 p110α (BD Biosciences), 1:1000 PKCα (BD Biosciences), and 1:5000 β-actin in 1% BSA (Sigma).

T1 sequence (P42337 whole entry): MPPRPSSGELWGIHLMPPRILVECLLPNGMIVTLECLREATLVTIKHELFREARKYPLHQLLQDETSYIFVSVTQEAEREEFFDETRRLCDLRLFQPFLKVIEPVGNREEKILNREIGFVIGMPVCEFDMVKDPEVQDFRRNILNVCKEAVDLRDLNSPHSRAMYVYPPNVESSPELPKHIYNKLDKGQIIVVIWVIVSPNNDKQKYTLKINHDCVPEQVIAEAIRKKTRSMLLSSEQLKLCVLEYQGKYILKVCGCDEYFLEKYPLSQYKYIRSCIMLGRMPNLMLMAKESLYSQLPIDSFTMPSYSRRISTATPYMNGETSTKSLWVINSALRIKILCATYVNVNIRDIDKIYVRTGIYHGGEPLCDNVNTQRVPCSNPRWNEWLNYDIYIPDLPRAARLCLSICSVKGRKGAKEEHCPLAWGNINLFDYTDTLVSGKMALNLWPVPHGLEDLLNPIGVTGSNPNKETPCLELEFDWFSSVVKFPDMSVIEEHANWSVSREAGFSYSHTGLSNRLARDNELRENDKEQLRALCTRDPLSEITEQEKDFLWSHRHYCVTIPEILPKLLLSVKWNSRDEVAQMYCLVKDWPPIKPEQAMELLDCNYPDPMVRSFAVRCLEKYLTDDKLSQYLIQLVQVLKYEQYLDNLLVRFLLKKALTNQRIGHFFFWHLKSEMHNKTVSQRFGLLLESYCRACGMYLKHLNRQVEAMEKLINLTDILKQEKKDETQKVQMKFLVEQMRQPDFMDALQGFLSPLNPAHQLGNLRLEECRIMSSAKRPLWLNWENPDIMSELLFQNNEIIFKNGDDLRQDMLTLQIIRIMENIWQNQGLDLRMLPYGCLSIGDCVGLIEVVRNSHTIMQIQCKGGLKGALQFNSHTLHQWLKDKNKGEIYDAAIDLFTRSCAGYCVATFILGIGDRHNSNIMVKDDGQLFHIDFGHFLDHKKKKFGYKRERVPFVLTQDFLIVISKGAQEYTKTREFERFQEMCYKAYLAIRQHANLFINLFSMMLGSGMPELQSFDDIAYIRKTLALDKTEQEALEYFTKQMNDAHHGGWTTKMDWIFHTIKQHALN
T1 sequence (P26450 whole entry partner): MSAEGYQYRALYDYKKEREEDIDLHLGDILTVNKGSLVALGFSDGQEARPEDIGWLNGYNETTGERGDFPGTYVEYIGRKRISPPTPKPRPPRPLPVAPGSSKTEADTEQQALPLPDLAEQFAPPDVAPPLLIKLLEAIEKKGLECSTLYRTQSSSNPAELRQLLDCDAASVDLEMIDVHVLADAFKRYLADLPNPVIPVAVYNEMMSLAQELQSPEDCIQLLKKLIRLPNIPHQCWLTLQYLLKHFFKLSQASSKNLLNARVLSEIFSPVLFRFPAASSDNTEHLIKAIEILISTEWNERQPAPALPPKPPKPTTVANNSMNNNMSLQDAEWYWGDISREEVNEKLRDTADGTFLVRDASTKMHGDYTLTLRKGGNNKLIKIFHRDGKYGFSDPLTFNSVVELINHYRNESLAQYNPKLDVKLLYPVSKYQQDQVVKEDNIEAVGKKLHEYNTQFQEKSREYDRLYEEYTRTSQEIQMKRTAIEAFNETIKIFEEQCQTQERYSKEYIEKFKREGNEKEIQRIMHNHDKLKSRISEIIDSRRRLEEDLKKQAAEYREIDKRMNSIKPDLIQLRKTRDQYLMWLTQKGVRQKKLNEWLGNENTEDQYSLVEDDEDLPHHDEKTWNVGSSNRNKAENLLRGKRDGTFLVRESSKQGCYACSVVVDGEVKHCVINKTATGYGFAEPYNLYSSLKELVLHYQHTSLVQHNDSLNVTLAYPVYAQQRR

CCCCCCCCCCCCCC(=O)O[C@@H]1[C@@H](C)[C@@]2(O)[C@@H](C=C(CO)C[C@]3(O)C(=O)C(C)=C[C@@H]23)[C@@H]2C(C)(C)[C@]12OC(C)=O [PMA, Phorbol 12-myristate 13-acetate]
Akt phosphorylation on serine 473 [1]: could induce an increase | stabilization of HIF-1α [1]: could induce | PI3K activity (incorporation of 32P into phosphoinositide substrate) [2]: significant increase | tyrosine416 phosphorylation of cSrc ([3]; SYF/cSrc cells): induced | cSrc activation (western blot) ([3]; mouse embryo fibroblasts lacking the p85 regulatory subunit): failed to induce
